In ChEMBL document CHEMBL1949552, “Synthesis and interaction with midkine of biotinylated chondroitin sulfate tetrasaccharides” (Bioorg Med Chem Lett, 2012):
pKd: −log10 of the molar value.

Each molecule was assayed against T1, Midkine (Homo sapiens, UniProt P21741) (assay: Binding affinity to recombinant midkine after 3 mins).
T1 sequence (P21741 whole entry): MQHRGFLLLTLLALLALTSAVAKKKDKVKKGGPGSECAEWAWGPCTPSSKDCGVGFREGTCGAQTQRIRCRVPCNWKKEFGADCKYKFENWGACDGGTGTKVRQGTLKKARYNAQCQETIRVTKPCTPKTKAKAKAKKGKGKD
Molecule `CC(=O)N[C@H]1[C@H](O[C@H]2[C@H](O)[C@@H](O)[C@H](O[C@H]3[C@@H](O)[C@@H](CO)O[C@@H](O[C@H]4[C@H](O)[C@@H](O)[C@H](OCCNC(=O)CCOCCOCCOCCOCCNC(=O)CCCC[C@@H]5SC[C@@H]6NC(=O)N[C@@H]65)O[C@@H]4C(=O)O)[C@@H]3NC(C)=O)O[C@@H]2C(=O)O)O[C@H](CO)[C@H](O)[C@@H]1O` has a pKd of 5.69.
Molecule `CC(=O)N[C@H]1[C@H](O[C@H]2[C@H](O)[C@@H](O)[C@H](O[C@@H]3[C@@H](NC(C)=O)[C@H](O[C@H]4[C@H](O)[C@@H](O)[C@H](OCCNC(=O)CCOCCOCCOCCOCCNC(=O)CCCC[C@@H]5SC[C@@H]6NC(=O)N[C@@H]65)O[C@@H]4C(=O)O)O[C@H](COS(=O)(=O)O)[C@@H]3OS(=O)(=O)O)O[C@@H]2C(=O)O)O[C@H](COS(=O)(=O)O)[C@H](OS(=O)(=O)O)[C@@H]1O` has a pKd of 8.58.
`CC(=O)N[C@H]1[C@H](O[C@H]2[C@H](O)[C@@H](O)[C@H](O[C@@H]3[C@@H](NC(C)=O)[C@H](O[C@H]4[C@H](O)[C@@H](O)[C@H](OCCNC(=O)CCOCCOCCOCCOCCNC(=O)CCCC[C@@H]5SC[C@@H]6NC(=O)N[C@@H]65)O[C@@H]4C(=O)O)O[C@H](CO)[C@@H]3OS(=O)(=O)O)O[C@@H]2C(=O)O)O[C@H](CO)[C@H](OS(=O)(=O)O)[C@@H]1O` showed a pKd of 7.75.
`CC(=O)N[C@H]1[C@H](O[C@H]2[C@H](O)[C@@H](O)[C@H](O[C@@H]3[C@@H](NC(C)=O)[C@H](O[C@H]4[C@H](O)[C@@H](O)[C@H](OCCNC(=O)CCOCCOCCOCCOCCNC(=O)CCCC[C@@H]5SC[C@@H]6NC(=O)N[C@@H]65)O[C@@H]4C(=O)O)O[C@H](CO)[C@@H]3OS(=O)(=O)O)O[C@@H]2C(=O)O)O[C@H](COS(=O)(=O)O)[C@H](OS(=O)(=O)O)[C@@H]1O` was tested, and the pKd was 7.94.
